The text below walks through data of PMC10999543, “Identification of kinase modulators as host-directed therapeutics against intracellular methicillin-resistant Staphylococcus aureus” (Frontiers in Cellular and Infection Microbiology, 2024).

Broadly, the % inhibition is how much of the control response was suppressed.

One series has as its system MCF7 cells. It is filed as cell-based, human. Conditions: 10 µM. The method, then:
(§1) Before harvesting or lysing the cells of the intracellular infection assays, the supernatant from the cells was collected to quantify LDH release by the cells using the LDH cytotoxicity detection kit (Roche, Merck, Darmstadt, Germany) according to the manufacturer’s instructions. Triton X-100 results in maximum LDH release by permeabilizing the cells and was used as positive control. Quantification was performed with the EnVision plate reader.

For series [1], the system named is other strains of S. aureus. Briefly: CFU count in HeLa cells infected with other strains of S. aureus. It is filed as cell-based, Staphylococcus aureus. Conditions: Supplementary Figure S8A. The method, then:
The cells were resuspended in cell culture medium without antibiotics, seeded with 10,000 cells/well into Costar flat-bottom 96-well plates (Corning, Amsterdam, the Netherlands), and were incubated overnight at 37°C/5% CO2. The next day, the bacteria were centrifuged at ≥1800 g for 15 min and resuspended in cold PBS + 5 mM ethylenediaminetetraacetic acid (EDTA). The number of CFUs present in the bacterial suspension was estimated from the optical density at 600 nm (OD600) by assuming 8x10^8 CFUs to be present in a bacterial suspension with OD600 = 1, based on prior titrations. The bacterial suspension was diluted in cell culture medium without antibiotics and added to the cells. Accuracy of the multiplicity of infection (MOI) was validated by plating serial dilutions of the MRSA inoculums on Difco TS agar plates (BD Biosciences). The calculated mean MOI throughout all experiments was 6.8 ± 4.6 (mean ± SD). Infected cells were centrifuged for 3 min at 150 g and incubated for 1 hour at 37°C/5% CO2. Next, the cells were incubated with fresh cell culture medium supplemented with 30 µg/ml gentamicin sulphate (Lonza BioWhittaker, Basel, Switzerland) for 15 min at 37°C/5% CO2 to kill residual extracellular bacteria. […]

Series [2] concerns AMPK. More on the design: method as in Elkins et al., 2016. To be noted: ref Elkins et al., 2016; cited from earlier work.
The subject of series [3] is AMPK. Briefly: Phosphorylation of ACC1 at Ser80 by flow cytometry (readout for AMPK activity). It is filed as cell-based, human. To be noted: MRSA-infected HeLa cells. On the procedure: To determine the expression of the HER kinase family, cells were harvested using PBS + 5 mM EDTA and fixed in 1% paraformaldehyde for 20 min at RT. To determine phosphorylation of ACC1 at Ser80, cells were harvested by incubation in pre-warmed trypsin-EDTA, which was neutralized after 5 min with an equal volume of FBS, and fixed in 4% ultra-pure formaldehyde (Bio Trend, Cologne, Germany) for 20 min at RT. For intracellular staining, the cells were permeabilized in ice-cold methanol for 20 min. Subsequently, the cells were blocked in PBS + 0.5% bovine serum albumin + 0.005% NaN3 (both from Sigma-Aldrich; FACS buffer) + 5% human serum for 5 min. The cells were labelled with primary and secondary antibodies (listed in Supplementary Table S1 ) in FACS buffer. Samples were measured on the FACSLyric and analysed using FlowJo 10 (FlowJo LCC, Ashland, OR, USA).
Background: A flow cytometer gives signals particle by particle.

Series [4] has as its system AMPK. The series can be described thus: Phosphorylation of AMPK at Thr172 by western blot. Type of series: cell-based, human. Conditions: MRSA-infected HeLa cells. The method, then:
HeLa cells were seeded with 100,000 cells/well in 24-wells plates. In short, the cells were lysed in EBSB buffer (10% v/v glycerol, 3% SDS, 100 mM Tris-HCl, pH 6.8) supplemented with one tablet of cOmplete EDTA-free protease inhibitor cocktail (Sigma-Aldrich) and proteins were denaturated at 95°C for 5 min. Protein concentrations were determined using a Pierce™ BCA protein assay kit (Thermo Fisher Scientific). Samples were diluted in Laemmli sample buffer and loaded on a 15-well 4–20% Mini-PROTEAN® TGX™ Precast Protein Gel for electrophoresis (both from Bio-Rad, Hercules, CA, USA). […] Membranes were blocked for 1h in PBS supplemented with 5% w/v non-fat dry milk. Next, the membranes were cut and each protein was separately stained with primary antibodies against actin and LC3B in PBS supplemented with 5% w/v non-fat dry milk, or against AMPKα and AMPKα-pThr172 in PBS supplemented with 5% BSA (antibodies listed in Supplementary Table S1 ). Membranes were stained with secondary antibodies in PBS supplemented with 5% w/v non-fat dry milk. After each staining, membranes were washed four times in PBS + 0.1% Tween20. Prior to revelation, the membranes were incubated for 10 min in enhanced chemiluminescence (ECL) Prime Western Blotting System reagent (GE Healthcare, Hoevelaken, The Netherlands). […] Protein bands were quantified using Fiji software ([Schindelin et al., 2012]).

The next series concerns A549 cells. It is filed as cell-based, human. To be noted: 10 µM. On the procedure: as §1
A further series concerns HER2. More on the design: method as in Elkins et al., 2016. To be noted: PKIS1, Caliper assay, ref Elkins et al., 2016; cited from earlier work.

Turning to `CC(C)c1nc(-c2cccc(NS(=O)(=O)c3c(F)cccc3F)c2F)c(-c2ccnc(Nc3ccc(N4CCOCC4)nc3)n2)s1` [GSK2008607A], the “cell viability of MRSA-infected cells (LDH-release)” value in the series with MCF7 cells was “significantly improved the overall survival”.
Take `COc1ccc2[nH]c3c4[nH]c5ccc(OC)cc5c4c4c(c3c2c1)C(=O)NC4=O` [GW296115X]: the “activity against other strains of S. aureus (CFU)” value in series [1] is “active”. Moreover, the “action on AMPK in a biochemical assay” value in the series with AMPK [2] was “AMPK inhibitor”. In the series with AMPK [3], the “ACC1 phosphorylation at Ser80” value is reported as “increased ACC1 phosphorylation”. In the series on AMPK [4], the “AMPK phosphorylation at Thr172” value was “significantly increased AMPK phosphorylation at Thr172”. Moreover, the “cell viability of MRSA-infected cells (LDH-release)” value in the series on A549 cells is reported as “rescued the loss of viability”.
On to `O=S(=O)(CCNCc1ccc(-c2ccc3ncnc(Nc4ccc(OCc5cccc(F)c5)c(Cl)c4)c3c2)o1)c1ccccc1` [GW633459A], for which the “% inhibition at 1 µM HER2” value with HER2 is reported as 60%.
